According to patent publication EP2987533B1, “7-substituted piperazin-1-yl fluoroquinolone compounds, their use in the treatment of cancer, pharmaceutical compositions and a method for preparation” (priority 2014, dated 2016):

Assays:
Assay in all cases: NCI one-dose SRB growth assay
Format in all cases: cell-based
[1] = test system: MDA-MB-468; conditions: Homo sapiens; MDA-MB-468 (Breast Cancer), 10^-5 M, 48 h; read-out: % Growth Inhibition (GI %)
Procedure, shortened: (§1)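 Screening used the NCI Drug Evaluation Branch protocol on roughly 60 human cancer cell lines. Compound exposure: 10^-5M, 48 h. Cell mass quantified by sulforhodamine B binding, read by spectrophotometer, reported as % growth compared with untreated control.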

[2] = test system: SNB-19; conditions: Homo sapiens; SNB-19 (CNS Cancer), 10^-5 M, 48 h; read-out: % Growth Inhibition (GI %)
Procedure, shortened: as §1

[3] = test system: UACC-257; conditions: Homo sapiens; UACC-257 (Melanoma), 10^-5 M, 48 h; read-out: % Growth Inhibition (GI %)
Procedure, shortened: as §1

[4] = test system: A549/ATCC; conditions: Homo sapiens; A549/ATCC (Non-Small Cell Lung Cancer), 10^-5 M, 48 h; read-out: % Growth Inhibition (GI %)
Procedure, shortened: as §1

[5] = test system: SNB-75; conditions: Homo sapiens; SNB-75 (CNS Cancer), 10^-5 M, 48 h; read-out: % Growth Inhibition (GI %)
Procedure, shortened: as §1

[6] = test system: ACHN; conditions: Homo sapiens; ACHN (Renal Cancer), 10^-5 M, 48 h; read-out: % Growth Inhibition (GI %)
Procedure, shortened: as §1

[7] = test system: SF-295; conditions: Homo sapiens; SF-295 (CNS Cancer), 10^-5 M, 48 h; read-out: % Growth Inhibition (GI %)
Procedure, shortened: as §1

[8] = test system: LOX IMVI; conditions: Homo sapiens; LOX IMVI (Melanoma), 10^-5 M, 48 h; read-out: % Growth Inhibition (GI %)
Procedure, shortened: as §1

[9] = test system: A498; conditions: Homo sapiens; A498 (Renal Cancer), 10^-5 M, 48 h; read-out: % Growth Inhibition (GI %)
Procedure, shortened: as §1

[10] = test system: COLO 205; conditions: Homo sapiens; COLO 205 (Colon Cancer), 10^-5 M, 48 h; read-out: % Growth Inhibition (GI %)
Procedure, shortened: as §1

[11] = test system: U251; conditions: Homo sapiens, U-251; U251 (CNS Cancer), 10^-5 M, 48 h; read-out: % Growth Inhibition (GI %)
Procedure, shortened: as §1

[12] = test system: NCI-H226; conditions: Homo sapiens; NCI-H226 (Non-Small Cell Lung Cancer), 10^-5 M, 48 h; read-out: % Growth Inhibition (GI %)
Procedure, shortened: as §1

[13] = test system: SR; conditions: Homo sapiens; SR (Leukemia), 10^-5 M, 48 h; read-out: % Growth Inhibition (GI %)
Procedure, shortened: as §1

[14] = test system: K-562; conditions: Homo sapiens, K562; K-562 (Leukemia), 10^-5 M, 48 h; read-out: % Growth Inhibition (GI %)
Procedure, shortened: as §1

[15] = test system: NCI-H522; conditions: Homo sapiens; NCI-H522 (Non-Small Cell Lung Cancer), 10^-5 M, 48 h; read-out: % Growth Inhibition (GI %)
Procedure, shortened: as §1

[16] = test system: HCT-15; conditions: Homo sapiens; HCT-15 (Colon Cancer), 10^-5 M, 48 h; read-out: % Growth Inhibition (GI %)
Procedure, shortened: as §1

[17] = test system: HCT-116; conditions: Homo sapiens; HCT-116 (Colon Cancer), 10^-5 M, 48 h; read-out: % Growth Inhibition (GI %)
Procedure, shortened: as §1

[18] = test system: SK-OV-3; conditions: Homo sapiens; SK-OV-3 (Ovarian Cancer), 10^-5 M, 48 h; read-out: % Growth Inhibition (GI %)
Procedure, shortened: as §1

[19] = test system: HL-60(TB); conditions: Homo sapiens; HL-60(TB) (Leukemia), 10^-5 M, 48 h; read-out: % Growth Inhibition (GI %)
[20] = test system: BT-549; conditions: Homo sapiens; BT-549 (Breast Cancer), 10^-5 M, 48 h; read-out: % Growth Inhibition (GI %)
Procedure, shortened: as §1

[21] = test system: MALME-3M; conditions: Homo sapiens; MALME-3M (Melanoma), 10^-5 M, 48 h; read-out: % Growth Inhibition (GI %)
Procedure, shortened: as §1

[22] = test system: NCI-H460; conditions: Homo sapiens; NCI-H460 (Non-Small Cell Lung Cancer), 10^-5 M, 48 h; read-out: % Growth Inhibition (GI %)
[23] = test system: UACC-62; conditions: Homo sapiens; UACC-62 (Melanoma), 10^-5 M, 48 h; read-out: % Growth Inhibition (GI %)
Procedure, shortened: as §1

[24] = test system: M14; conditions: Homo sapiens; M14 (Melanoma), 10^-5 M, 48 h; read-out: % Growth Inhibition (GI %)
Procedure, shortened: as §1

[25] = test system: KM12; conditions: Homo sapiens; KM12 (Colon Cancer), 10^-5 M, 48 h; read-out: % Growth Inhibition (GI %)
Procedure, shortened: as §1

[26] = test system: SW-620; conditions: Homo sapiens; SW-620 (Colon Cancer), 10^-5 M, 48 h; read-out: % Growth Inhibition (GI %)

SMILES: CCn1cc(C(=O)O)c(=O)c2cc(F)c(N3CCN(S(=O)(=O)c4cccc5ccccc45)CC3)cc21 [Compound 7a]
- inhibition at 10 µM [1]: 95.2%
- inhibition at 10 µM [2]: 71.2%
- inhibition at 10 µM [3]: 86%
- inhibition at 10 µM [4]: 96.2%
- inhibition at 10 µM [5]: 85.9%
- inhibition at 10 µM [6]: > 100%
- inhibition at 10 µM [7]: 92.3%
- inhibition at 10 µM [8]: > 100%
- inhibition at 10 µM [9]: > 100%
- inhibition at 10 µM [10]: > 100%
- inhibition at 10 µM [11]: 85.8%
- inhibition at 10 µM [12]: 78.1%
- inhibition at 10 µM [13]: 97.8%
- inhibition at 10 µM [14]: 84.6%
- inhibition at 10 µM [15]: > 100%
- inhibition at 10 µM [16]: 88.9%
- inhibition at 10 µM [17]: 94.5%
- inhibition at 10 µM [18]: 84.4%
- inhibition at 10 µM [19]: > 100%
- inhibition at 10 µM [20]: > 100%
- inhibition at 10 µM [21]: > 100%
- inhibition at 10 µM [22]: 92%
- inhibition at 10 µM [23]: 68.8%
- inhibition at 10 µM [24]: 82.1%
- inhibition at 10 µM [25]: 88.3%
- inhibition at 10 µM [26]: 77.2%
